According to patent publication US9439432B2, “Phenylisoxazoline-based compound having herbicidal activity and use thereof” (MOGHU RESEARCH CENTER LTD, priority 2011, dated 2016):

Key:
Type in all cases: in vivo
[1] = tested on: Corn; test: Pre-emergence treatment, phytotoxicity to corn; settings: 500 g/ha, 4 weeks after spraying, scale 0 to 10 (0: no effects, 10: complete death)
Experimental: (§1) A rectangular plastic pot having a surface area of 300 cm^2 was filled with sandy loam soil and mixed bed soil which were mixed at a ratio of 1:1, and then, barnyardrass (Echinochloa crusgalli), large crabgrass (Digitaria sanguinalis), blackgrass (Alopecurus myosuroides), and annual bluegrass (Poa annua), which are grass weeds, were seeded thereto. In a pot that was prepared as described above, seeds of corn, soybean, cotton, wheat, and rice were seeded. The pots were irrigated, and one day after, chemicals were sprayed thereto. The spraying was performed by using a track sprayer (R&D Sprayer, USA) equipped with a Teejet 8002 (Spraying Systems Co., USA) nozzle, and a spraying amount was adjusted at 300 L/ha. A spraying solution was prepared by dissolving test materials or references in acetone and adding the same amount of 0.2%(v/v) tween 20 aqueous solution thereto. Application rates were 500, 250, 125, and 62.5 g/ha. The pots were placed in a greenhouse in which during day, the temperature was maintained at a temperature of 25 to 30° C., and during night, the temperature was maintained at a temperature of 15 to 25° C., and the pots were periodically irrigated. Four weeks after the spraying the test materials or References, effects and phytotoxicity of the respective weeds and crops were evaluated in a scale of 0 to 10 (0: no effects, 10: complete death), and results thereof are shown in Table 4 below.

[2] = tested on: Soybean; test: Pre-emergence treatment, phytotoxicity to soybean; settings: 500 g/ha, 4 weeks after spraying, scale 0 to 10 (0: no effects, 10: complete death)
Experimental: as §1

[3] = tested on: Cotton; test: Pre-emergence treatment, phytotoxicity to cotton; settings: 500 g/ha, 4 weeks after spraying, scale 0 to 10 (0: no effects, 10: complete death)
Experimental: as §1

[4] = tested on: Wheat; test: Pre-emergence treatment, phytotoxicity to wheat; settings: 500 g/ha, 4 weeks after spraying, scale 0 to 10 (0: no effects, 10: complete death)
Experimental: as §1

[5] = tested on: Rice; test: Pre-emergence treatment, phytotoxicity to rice; settings: 500 g/ha, 4 weeks after spraying, scale 0 to 10 (0: no effects, 10: complete death)
Experimental: as §1

[6] = tested on: Echinochloa crusgalli; test: Pre-emergence treatment, herbicidal efficacy on barnyardgrass; settings: 4 weeks after spraying
Experimental: as §1

[7] = tested on: Digitaria sanguinalis; test: Pre-emergence treatment, herbicidal efficacy on large crabgrass; settings: 4 weeks after spraying, scale 0 to 10
Experimental: as §1

[8] = tested on: Poa annua; test: Pre-emergence treatment, herbicidal efficacy on annual bluegrass; settings: 4 weeks after spraying, scale 0 to 10
Experimental: as §1

[9] = tested on: Alopecurus myosuroides; test: Pre-emergence treatment, herbicidal efficacy on blackgrass; settings: 4 weeks after spraying, scale 0 to 10
Experimental: as §1

[10] = tested on: Corn; test: Post-emergence treatment, phytotoxicity to corn; settings: post-emergence (about 3 leaf stage), 1,000 g/ha, 4 weeks after spraying, scale 0 to 10 (0: no effects, 10: complete death)
Experimental: as §1
(§2) Pots containing crops and weeds were prepared in the same manner as in Example 7, and then, in the second week in which crops and weeds entered into about 3 leaf stage, the test materials and the references were sprayed thereto in the same manner as described above. The rates were 1,000, 500, 250, and 125 g/ha. Four weeks after the spraying of the test materials or the references, herbicidal efficacy and phytotoxicity to the respective weeds and crops were evaluated in a scale of 0 to 10 (0: no effects, 10: complete death).

[11] = tested on: Soybean; test: Post-emergence treatment, phytotoxicity to soybean; settings: post-emergence (about 3 leaf stage), 1,000 g/ha, 4 weeks after spraying, scale 0 to 10 (0: no effects, 10: complete death)
Experimental: as §1, §2

[12] = tested on: Cotton; test: Post-emergence treatment, phytotoxicity to cotton; settings: post-emergence (about 3 leaf stage), 1,000 g/ha, 4 weeks after spraying, scale 0 to 10 (0: no effects, 10: complete death)
Experimental: as §1, §2

[13] = tested on: Wheat; test: Post-emergence treatment, phytotoxicity to wheat; settings: post-emergence (about 3 leaf stage), 1,000 g/ha, 4 weeks after spraying, scale 0 to 10 (0: no effects, 10: complete death)
Experimental: as §1, §2

[14] = tested on: Rice; test: Post-emergence treatment, phytotoxicity to rice; settings: post-emergence (about 3 leaf stage), 1,000 g/ha, 4 weeks after spraying, scale 0 to 10 (0: no effects, 10: complete death)
Experimental: as §1, §2

[15] = tested on: Echinochloa crusgalli; test: Post-emergence treatment, herbicidal efficacy on barnyardgrass; settings: 4 weeks after spraying, scale 0 to 10
Experimental: as §1, §2

[16] = tested on: Digitaria sanguinalis; test: Post-emergence treatment, herbicidal efficacy on large crabgrass; settings: 4 weeks after spraying, scale 0 to 10
Experimental: as §1, §2

[17] = tested on: Poa annua; test: Post-emergence treatment, herbicidal efficacy on annual bluegrass; settings: 4 weeks after spraying, scale 0 to 10
Experimental: as §1, §2

[18] = tested on: Alopecurus myosuroides; test: Post-emergence treatment, herbicidal efficacy on blackgrass; settings: 4 weeks after spraying, scale 0 to 10
Experimental: as §1, §2

[19] = tested on: grass weeds including barnyardrass, large crabgrass, and annual bluegrass; test: Pre-emergence treatment, grass weeds overall; settings: relative to reference compounds
Experimental: as §1

[20] = 500 g/ha, scale 0 to 10 (0: no effects, 10: complete death)

CC1(COCc2c(F)cccc2F)CC(c2ccccc2Cl)=NO1 (stereo not shown) [Compound 2, 3-(2-chlorophenyl)-5-((2,6-difluorobenzyloxy)methyl)-5-methyl-4,5-dihydroisoxazole]
1: Phytotoxicity, Soybean [11] | Phytotoxicity, Cotton [12] | Phytotoxicity, Wheat [13] | Phytotoxicity, Rice [14] | Herbicidal efficacy, Alopecurus myosuroides ([18]; post-emergence, 125 g/ha)
6: Herbicidal efficacy, Alopecurus myosuroides ([9]; 250 g/ha) | Herbicidal efficacy, Digitaria sanguinalis ([16]; post-emergence, 500 g/ha)
9: Herbicidal efficacy, Echinochloa crusgalli ([6]; 62.5 g/ha, scale 0 to 10) | Herbicidal efficacy, Digitaria sanguinalis ([7]; 62.5 g/ha) | Herbicidal efficacy, Poa annua ([8]; 125 g/ha) | Herbicidal efficacy, Alopecurus myosuroides ([18]; post-emergence, 1,000 g/ha)
8: Herbicidal efficacy, Poa annua ([8]; 62.5 g/ha) | Herbicidal efficacy, Echinochloa crusgalli ([15]; post-emergence, 500 g/ha) | Herbicidal efficacy, Poa annua ([17]; post-emergence, 250 g/ha) | Herbicidal efficacy, Poa annua ([17]; post-emergence, 500 g/ha)
3: Herbicidal efficacy, Alopecurus myosuroides ([9]; 125 g/ha)
0: Phytotoxicity, Corn [1] | Phytotoxicity, Soybean [2] | Phytotoxicity, Cotton [3] | Phytotoxicity, Wheat [4] | Phytotoxicity, Rice [5] | Herbicidal efficacy, Echinochloa crusgalli ([15]; post-emergence, 125 g/ha)
about 4 times: efficacy stronger than the References [19]
2: Herbicidal efficacy, Alopecurus myosuroides ([9]; 62.5 g/ha) | Phytotoxicity, Corn [10]
10: Herbicidal efficacy, Echinochloa crusgalli ([6]; 125 g/ha, scale 0 to 10) | Herbicidal efficacy, Echinochloa crusgalli ([6]; 250 g/ha, scale 0 to 10) | Herbicidal efficacy, Echinochloa crusgalli [6, 20] | Herbicidal efficacy, Digitaria sanguinalis ([7]; 125 g/ha) | Herbicidal efficacy, Digitaria sanguinalis ([7]; 250 g/ha) | Herbicidal efficacy, Digitaria sanguinalis ([7]; 500 g/ha) | Herbicidal efficacy, Poa annua ([8]; 250 g/ha) | Herbicidal efficacy, Poa annua ([8]; 500 g/ha) | Herbicidal efficacy, Alopecurus myosuroides ([9]; 500 g/ha) | Herbicidal efficacy, Echinochloa crusgalli ([15]; post-emergence, 1,000 g/ha) | Herbicidal efficacy, Digitaria sanguinalis ([16]; post-emergence, 1,000 g/ha) | Herbicidal efficacy, Poa annua ([17]; post-emergence, 1,000 g/ha)
7: Herbicidal efficacy, Alopecurus myosuroides ([18]; post-emergence, 500 g/ha)
5: Herbicidal efficacy, Echinochloa crusgalli ([15]; post-emergence, 250 g/ha) | Herbicidal efficacy, Digitaria sanguinalis ([16]; post-emergence, 125 g/ha) | Herbicidal efficacy, Digitaria sanguinalis ([16]; post-emergence, 250 g/ha) | Herbicidal efficacy, Poa annua ([17]; post-emergence, 125 g/ha) | Herbicidal efficacy, Alopecurus myosuroides ([18]; post-emergence, 250 g/ha)

Cc1cccc(C2=NOC(C)(COCc3c(F)cccc3F)C2)c1 (stereo not shown) [Reference F]
9: Herbicidal efficacy, Poa annua ([8]; 500 g/ha)
0: Phytotoxicity, Soybean [2] | Phytotoxicity, Cotton [3] | Phytotoxicity, Wheat [4] | Phytotoxicity, Rice [5] | Herbicidal efficacy, Echinochloa crusgalli ([6]; 62.5 g/ha, scale 0 to 10) | Herbicidal efficacy, Poa annua ([8]; 62.5 g/ha) | Herbicidal efficacy, Poa annua ([8]; 125 g/ha) | Herbicidal efficacy, Alopecurus myosuroides ([9]; 62.5 g/ha) | Herbicidal efficacy, Alopecurus myosuroides ([9]; 125 g/ha) | Herbicidal efficacy, Alopecurus myosuroides ([9]; 250 g/ha) | Phytotoxicity, Soybean [11] | Phytotoxicity, Cotton [12] | Phytotoxicity, Wheat [13] | Phytotoxicity, Rice [14] | Herbicidal efficacy, Echinochloa crusgalli ([15]; post-emergence, 125 g/ha) | Herbicidal efficacy, Digitaria sanguinalis ([16]; post-emergence, 125 g/ha) | Herbicidal efficacy, Poa annua ([17]; post-emergence, 125 g/ha) | Herbicidal efficacy, Alopecurus myosuroides ([18]; post-emergence, 125 g/ha) | Herbicidal efficacy, Alopecurus myosuroides ([18]; post-emergence, 250 g/ha)
6: Herbicidal efficacy, Digitaria sanguinalis ([7]; 250 g/ha) | Herbicidal efficacy, Echinochloa crusgalli ([15]; post-emergence, 1,000 g/ha) | Herbicidal efficacy, Digitaria sanguinalis ([16]; post-emergence, 1,000 g/ha) | Herbicidal efficacy, Poa annua ([17]; post-emergence, 1,000 g/ha)
1: Phytotoxicity, Corn [1] | Herbicidal efficacy, Echinochloa crusgalli ([6]; 125 g/ha, scale 0 to 10) | Herbicidal efficacy, Digitaria sanguinalis ([7]; 62.5 g/ha)
2: Herbicidal efficacy, Digitaria sanguinalis ([7]; 125 g/ha) | Phytotoxicity, Corn [10] | Herbicidal efficacy, Alopecurus myosuroides ([18]; post-emergence, 500 g/ha)
3: Herbicidal efficacy, Alopecurus myosuroides ([9]; 500 g/ha) | Herbicidal efficacy, Echinochloa crusgalli ([15]; post-emergence, 250 g/ha) | Herbicidal efficacy, Digitaria sanguinalis ([16]; post-emergence, 250 g/ha) | Herbicidal efficacy, Poa annua ([17]; post-emergence, 250 g/ha)
5: Herbicidal efficacy, Echinochloa crusgalli ([6]; 250 g/ha, scale 0 to 10) | Herbicidal efficacy, Poa annua ([8]; 250 g/ha) | Herbicidal efficacy, Poa annua ([17]; post-emergence, 500 g/ha)
10: Herbicidal efficacy, Echinochloa crusgalli [6, 20] | Herbicidal efficacy, Digitaria sanguinalis ([7]; 500 g/ha)
4: Herbicidal efficacy, Echinochloa crusgalli ([15]; post-emergence, 500 g/ha) | Herbicidal efficacy, Digitaria sanguinalis ([16]; post-emergence, 500 g/ha) | Herbicidal efficacy, Alopecurus myosuroides ([18]; post-emergence, 1,000 g/ha)
